Measured values from US20040040047A1 (priority 1998, published 2004).

Columns and labels:
Fv2-casp-3 [1] = target: T1, Fv2-casp-3 (Homo sapiens, UniProt P62942, F37V); assay: SEAP reporter assay, Jurkat TAg cells transfected with Fv2-casp-3; assay type: cell-based; details: 2 μg Fv2-casp-3, Jurkat TAg, in the presence of AP1903
T1 construct: caspase-3 (same polypeptide); expressed in transfected cells; host or cells: Jurkat TAg

conditional Fas = target: T2, conditional Fas (Homo sapiens, UniProt P62942, F37V); assay: Luciferase survival assay, BPH-derived smooth muscle cells transfected with conditional Fas; assay type: cell-based; details: with or without AP1903, 24 hours
T2 construct: Fas cytoplasmic portion (same polypeptide); expressed in transfected cells; host or cells: JD and CR-2a (smooth muscle cell lines from BPH patients)
Source text: (§1) Conditional Fas, YAMA and a YAMA construct containing a single, inactivating point mutation were cotransfected with a luciferase reporter plasmid (pGL2) into JD and CR-2a cell lines. These are smooth muscle cell lines derived from prostate tissue samples taken from patients with BPH. […] Cells were then lysed and assayed for luciferase activity as a marker of cell survival.
(§2) It is worth noting that a conditional Fas-based treatment for BPH is not possible since the Fas construct was not effective in causing apoptosis in BPH derived cell lines. It is quite likely that Fas-based methods will be ineffective in many other cell types, thus severely limiting the utility of this approach.

conditional YAMA = target: T3, conditional YAMA (Homo sapiens, UniProt P62942, F37V); assay: Luciferase survival assay, BPH-derived smooth muscle cells (JD, CR-2a) transfected with conditional YAMA; assay type: cell-based
T3 construct: caspase-3 / YAMA (same polypeptide); expressed in transfected cells; host or cells: JD and CR-2a (smooth muscle cell lines from BPH patients)
Source text: as §1, §2

inactivated YAMA = target: T4, inactivated YAMA (Homo sapiens, UniProt P42574+P62942, C163S/F37V); assay: Luciferase survival assay, BPH-derived smooth muscle cells transfected with inactivated YAMA; assay type: cell-based; details: with or without AP1903, 24 hours
T4 construct: caspase-3 C163S (same polypeptide); expressed in transfected cells; host or cells: JD and CR-2a (smooth muscle cell lines from BPH patients)
Source text: as §1, §2

Fv2-casp-3 [2] = target: T1, Fv2-casp-3; assay: Western blot of processing and degradation of Fv2-casp-3 in Jurkat cells; assay type: cell-based
Experimental: Jurkat TAg cells were electroporated with 2 μg of plasmid, cultured 36 hours, and stimulated with drug for the indicated time period. Approximately 5×10^5 cells were lysed in 100 μl RIPA buffer (0.01M TrisHCl pH 8.0, 140 mM NaCl, 1% Triton X-100, 1 mM phenylmethylsulfonyl fluoride, 1% sodium deoxycholate, 0.1% SDS) on ice for 30 minutes. Cell debris were pelleted and supernatants were boiled in 1:1 Laemmli sample buffer (with 5% β-ME) for 5 minutes. […] Membranes were incubated with monoclonal anti-HA epitope antibody, HA.11 (BABCO) followed by polyclonal HRP-conjugated goat anti-mouse antibody (Bio-Rad). Bands were detected with SuperSignal-Chemiluminescent Substrate (Pierce).
Processing of caspase-3, and other caspases, ordinarily involves two or more cleavages after aspartic acid residues. To confirm that the CID-mediated diminution of reporter activity was caused by activation of the conditional caspases, the processing and degradation of conditional caspase-3 was directly examined. Jurkat cells were transfected 2 μg Fv2-casp-3 or Fv2-casp-3/S163. […] Following these incubations, cell extracts were analyzed by western blotting using monoclonal antibodies to an epitope tag (HA) placed at both ends of the construct.
The breakdown products of caspase-3 activation were not seen even though epitope tags were present at both ends of the protein. […] Therefore, homomultimerization of the caspases, caspase-1 and caspase-3, is sufficient for their activation.

Fv2-casp-3/S163 = target: T5, Fv2-casp-3/S163 (Homo sapiens, UniProt P42574+P62942, C163S/F37V); assay: SEAP reporter assay, Jurkat TAg cells transfected with inactive Fv2-casp-3/S163; assay type: cell-based; details: 100 nM AP1903, enzymatically inactive caspase-3
T5 construct: caspase-3 C163S (same polypeptide); expressed in transfected cells; host or cells: Jurkat TAg
Experimental: Jurkat TAg cells (10^7) in log phase growth were electroporated (950 μF, 250V; Gene Pulser II) with expression plasmid and 1-2 μg SRα-SEAP. After 24 hours, transformed cells were stimulated with CID or anti-Fas antibody (CH.11, Kamiya Biomedical). After an additional 20 hours, supernatants were assayed for SEAP activity as described previously (15). Units of SEAP activity are reported directly and as a percentage of activity relative to no stimulation within the same transfections (% Relative Activity).
In contrast to caspase-1 and Fas, conditional caspase-3 alleles are not apparently autotoxic (FIGS. 7-9). With reference to FIGS. 7 and 8, Jurkat TAg cells were transiently-transfected with: 2 μg Fv2-casp-3 (open squares), or 2 μg Fv2-casp-3/S163 (closed squares). With reference to FIG. 9, Jurkat TAg cells were transfected with: 2 μg Fpk3-casp-3/S163 (closed triangles), 2 μg Fpk3-casp-3 (open squares), or 2 μg Fpk3-Δ20casp-3 (closed squares). After 20 hours, transfected cells were treated and analyzed as before. Data is representative of at least three independent experiments performed in duplicate.

JD-2a cells = assay: Fluorescent microscopy of JD-2a cells infected with Adv-Fv1-YAMA; assay type: cell-based, human; details: Adv-Fv1-YAMA MOI ~25, 50 nM AP1903 for 24 hours
Experimental: Replication deficient (ΔE1) adenoviral vectors expressing green flourescent protein and conditional Caspase 1 (ICE) or Caspase 3 (YAMA) were engineered. These vectors independently express green fluorescent protein so that infected cells are easily identified by their green color under fluorescent microscopy.
40,000 JD-2a cells per well were plated in 24-well plates and infected at a multiplicity-of-infection (MOI) of ˜25 with Adv-Fv1-YAMA, an adenoviral vector expressing CID-regulated YAMA. […] All of the cells incubated with virus and maintained in control media appeared green, and were clearly attached and viable, similar to non-fluorescent non-infected JD-2a cells (FIG. 47b).

[3] = test system: tumor cell types expressing herpes virus tk; details: cited from earlier work
RM-1 cells = details: single treatment with adenovirus expressing HSV-tk and ganciclovir; cited from earlier work
FKBP12V36 (Fv) = FKBP12V36 (Fv) (Homo sapiens, UniProt P62942, F37V); assay: CID binding to mutant FKBP12 (F36V, Fv); details: relative to AP1903
S-Fv2-Casp1 = target: T6, S-Fv2-Casp1 (Homo sapiens, UniProt P62942, F37V); assay: SEAP reporter assay, Jurkat TAg cells, S-Fv2-Casp1; assay type: cell-based; details: caspase-1 fused to two Fvs, no linker
T6 construct: caspase-1 (same polypeptide); expressed in transfected cells; host or cells: Jurkat TAg
Experimental: (§3) Jurkat TAg cells (10^7) in log phase growth were electroporated (950 μF, 250 V) with expression plasmid and 2 μg SRα-SEAP. […] Units of SEAP activity are reported directly and as a percentage of activity relative to no stimulation (“% Relative SEAP activity”). All experiments were repeated at least three times and representative experiments performed with duplicate samples are shown.

S-Fv3-Casp3 = target: T7, S-Fv3-Casp3 (Homo sapiens, UniProt P62942, F37V); assay: SEAP reporter assay, Jurkat TAg cells, S-Fv3-Casp3; assay type: cell-based; details: construct containing three Fvs; read-out: IC50 (decrease in SEAP activity)
T7 construct: caspase-3 (same polypeptide); expressed in transfected cells; host or cells: Jurkat TAg
Experimental: as §3

T1 sequence (P62942 2-108 F37V): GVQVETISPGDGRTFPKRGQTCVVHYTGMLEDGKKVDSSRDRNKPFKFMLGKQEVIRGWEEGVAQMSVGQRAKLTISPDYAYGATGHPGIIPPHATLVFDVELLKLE
T3 sequence (P62942 2-108 F37V): as above
T3 sequence (P42574 2-277 partner limits assumed): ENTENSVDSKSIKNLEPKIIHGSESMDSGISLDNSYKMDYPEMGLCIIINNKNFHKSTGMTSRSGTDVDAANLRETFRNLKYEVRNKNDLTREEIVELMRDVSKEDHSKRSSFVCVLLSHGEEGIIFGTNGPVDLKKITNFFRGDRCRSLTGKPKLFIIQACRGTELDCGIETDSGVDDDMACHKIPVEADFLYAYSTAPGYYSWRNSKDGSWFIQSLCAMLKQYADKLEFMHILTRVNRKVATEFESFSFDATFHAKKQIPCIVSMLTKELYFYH
T7 sequence (P62942 2-108 F37V): as the sequence (P62942 2-108 F37V) above
T7 sequence (P42574 2-277 partner limits assumed): as the sequence (P42574 2-277 partner limits assumed) above
T2 sequence (P62942 2-108 F37V): as the sequence (P62942 2-108 F37V) above
T2 sequence (P25445 191-335 partner limits assumed): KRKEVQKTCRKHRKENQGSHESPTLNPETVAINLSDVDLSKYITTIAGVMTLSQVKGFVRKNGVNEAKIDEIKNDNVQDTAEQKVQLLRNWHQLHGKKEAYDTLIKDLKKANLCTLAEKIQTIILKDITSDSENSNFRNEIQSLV
T6 sequence (P62942 2-108 F37V): as the sequence (P62942 2-108 F37V) above
T6 sequence (P29466 2-404 partner limits assumed): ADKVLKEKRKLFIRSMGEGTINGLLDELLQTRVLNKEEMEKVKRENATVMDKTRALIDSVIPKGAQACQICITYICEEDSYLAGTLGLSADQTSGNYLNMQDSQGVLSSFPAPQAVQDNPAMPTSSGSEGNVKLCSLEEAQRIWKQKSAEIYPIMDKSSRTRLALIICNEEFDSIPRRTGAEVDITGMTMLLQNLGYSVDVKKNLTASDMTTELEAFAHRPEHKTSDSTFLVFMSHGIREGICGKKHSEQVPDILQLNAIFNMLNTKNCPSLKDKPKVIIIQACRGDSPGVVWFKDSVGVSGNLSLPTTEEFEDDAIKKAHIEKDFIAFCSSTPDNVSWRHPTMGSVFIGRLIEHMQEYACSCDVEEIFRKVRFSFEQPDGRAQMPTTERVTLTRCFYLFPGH
FKBP12V36 (Fv), sequence (P62942 whole entry F37V, the tested form may be a part): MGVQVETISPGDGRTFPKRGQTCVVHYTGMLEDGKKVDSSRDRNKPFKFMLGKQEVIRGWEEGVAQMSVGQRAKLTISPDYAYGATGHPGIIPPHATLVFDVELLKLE

Compound: CC[C@H](C(=O)N1CCCC[C@H]1C(=O)O[C@H](CCc1ccc(OC)c(OC)c1)c1cccc(OCC(=O)NCCNC(=O)COc2cccc([C@@H](CCc3ccc(OC)c(OC)c3)OC(=O)[C@@H]3CCCCN3C(=O)[C@@H](CC)c3cc(OC)c(OC)c(OC)c3)c2)c1)c1cc(OC)c(OC)c(OC)c1 [AP1903]
- reduction in reporter activity (Fv2-casp-3 [1]): ≈ 65%
- reduction in the percentage of surviving cells (conditional Fas): no significant reduction
- reduction in reporter activity (conditional YAMA; 100 μM AP1903 for 24 hours): 82%
- luciferase activity (conditional YAMA; treated with 100 μM AP1903 for 24 hours, 668±67 without AP1903): 119±13
- reduction in the percentage of surviving cells (inactivated YAMA): no significant reduction
- time to full degradation of Fv2-casp-3 (Fv2-casp-3 [2]; 100 nM AP1903): four
- time to complete degradation of full-length caspase-3 (Fv2-casp-3 [2]; 500 nM AP1903): ≤ 2 h
- concentration sufficient to cause the processing and degradation of the majority of Fv2-casp-3 (Fv2-casp-3 [2]; treated for eight hours, half-log dilutions): 10 nM
- reduction of reporter activity (Fv2-casp-3/S163): could not reduce reporter activity
- cells either dead or in the process of undergoing apoptosis (JD-2a cells): > 99%

Compound: Nc1nc(O)c2ncn(COC(CO)CO)c2n1 [ganciclovir]
- dose up to which the cell line was essentially immune ([3]; ESB cell line): up to 1 μg/mL
- time necessary to effect a substantial amount of cell death ([3]; high doses of ganciclovir): 6 to 22 days
- reduction in lung colonization (RM-1 cells): 40%

Compound: FK1012
- lower affinity of FK1012 for Fv versus AP1903 (FKBP12V36 (Fv)): ten-fold
- IC50 (S-Fv2-Casp1): 1 nM
- IC50 (S-Fv3-Casp3): ~20 nM
